Results taken from ChEMBL document CHEMBL5038670, “Design, Synthesis, and Biological Evaluation of Apcin-Based CDC20 Inhibitors” (ACS Med Chem Lett, 2022).
Active and inactive are the calls of the source. No cut-off for these calls is given here.

Columns and labels:
MDA-MB-468 [1] = assay: Cytotoxicity against human TNBC MDA-MB-468 cells assessed as cell viability measured after 72 hrs; type: functional, cell-based; settings: MDA-MB-468, 72 h
MDA-MB-231 [2] = assay: Cytotoxicity against human TNBC MDA-MB-231 cells assessed as cell viability measured after 72 hrs; type: functional, cell-based; settings: MDA-MB-231, 72 h
MDA-MB-468 [3] = assay: Downregulation of CDC20 level in human TNBC MDA-MB-468 cells at 30 uM measured after 24 hrs by western blot analysis relative to control; type: functional, cell-based
MDA-MB-468 [4] = assay: Upregulation of cyclin B1 level in human TNBC MDA-MB-468 cells at 10 uM measured after 24 hrs by western blot analysis relative to control; type: functional, cell-based
MDA-MB-468 [5] = assay: Downregulation of se-curin level in human TNBC MDA-MB-468 cells at 10 uM measured after 24 hrs by western blot analysis relative to control; type: functional, cell-based
MDA-MB-468 [6] = assay: Downregulation of cyclin B1 level in human TNBC MDA-MB-468 cells at 30 uM measured after 24 hrs by western blot analysis relative to control; type: functional, cell-based
MDA-MB-468 [7] = assay: Effect on BimL expression in human TNBC MDA-MB-468 cells at 10 to 30 uM measured after 24 hrs by western blot analysis relative to control; type: functional, cell-based; settings: dose 10-30 µM
MDA-MB-468 [8] = assay: Effect on BimEL expression in human TNBC MDA-MB-468 cells at 10 to 30 uM measured after 24 hrs by western blot analysis relative to control; type: functional, cell-based; settings: dose 10-30 µM
MDA-MB-468 [9] = assay: Downregulation of CDC20 level in human TNBC MDA-MB-468 cells at 10 uM measured after 24 hrs by western blot analysis relative to control; type: functional, cell-based
MDA-MB-468 [10] = assay: Downregulation of se-curin level in human TNBC MDA-MB-468 cells at 30 uM measured after 24 hrs by western blot analysis relative to control; type: functional, cell-based
MDA-MB-468 [11] = assay: Antitumor activity against human MDA-MB-468 cells assessed as induction of cell death at 30 uM measured after 24 hour relative to control; type: functional, cell-based
MDA-MB-468 [12] = assay: Effect on BimS expression in human TNBC MDA-MB-468 cells at 10 to 30 uM measured after 24 hrs by western blot analysis relative to control; type: functional, cell-based; settings: dose 10-30 µM
MDA-MB-468 [13] = assay: Upregulation of cyclin B1 level in human TNBC MDA-MB-468 cells at 80 uM measured after 24 hrs by western blot analysis relative to control; type: functional, cell-based
Sus scrofa [14] = species on record: Sus scrofa; assay: Inhibition of porcine brain tubulin polymerization at 10 uM measured for 60 mins by spectrophotometric method relative to control
MDA-MB-231 [15] = assay: Cytotoxicity against human TNBC MDA-MB-231 cells assessed as cell viability at 300 uM measured after 72 hrs relative to control; type: functional; settings: for viability at 300 µM: read-out: Activity
MDA-MB-468 [16] = assay: Cytotoxicity against human TNBC MDA-MB-468 cells assessed as cell viability at 300 uM measured after 72 hrs relative to control; type: functional; settings: for viability at 300 µM: read-out: Activity
Sus scrofa [17] = species on record: Sus scrofa; assay: Induction of porcine brain tubulin polymerization at 10 uM measured for 60 mins by spectrophotometric method relative to control; type: tissue-based

SMILES	IC50 (MDA-MB-468 [1]) [µM]	IC50 (MDA-MB-231 [2]) [µM]	other results
Cc1ncc([N+](=O)[O-])n1CCOC(=O)NC(Nc1nc2ccc(C#N)cc2s1)C(F)(F)Cl (stereo unspecified)	116	80.8	–
Cc1ncc([N+](=O)[O-])n1CCOC(=O)NC(Nc1nc(-c2ccc(Cl)cc2Cl)cs1)C(F)(F)Cl (stereo unspecified)	14.4	21.4	–
Cc1ncc([N+](=O)[O-])n1CCOC(=O)NC(Nc1nc2ccc([N+](=O)[O-])cc2s1)C(F)(F)Cl (stereo unspecified)	40.1	37.8	–
Cc1ncc([N+](=O)[O-])n1CCOC(=O)NC(Nc1nc2c(F)cc(F)cc2s1)C(F)(F)Cl (stereo unspecified)	101	106	–
Cc1sc(NC(NC(=O)OCCn2c([N+](=O)[O-])cnc2C)C(F)(Cl)Cl)nc1-c1ccc(OC(F)(F)F)cc1 (stereo unspecified)	13.2	10.8	Activity (MDA-MB-468 [3]): Active; Activity (MDA-MB-468 [4]): Active; Activity (MDA-MB-468 [5]): Active; Activity (MDA-MB-468 [6]): Active; Activity (MDA-MB-468 [7]): Dose-Dependent Effect; Activity (MDA-MB-468 [8]): Dose-Dependent Effect; Activity (MDA-MB-468 [9]): inactive; Activity (MDA-MB-468 [10]): Active; Activity (MDA-MB-468 [11]): Active; Activity (MDA-MB-468 [12]): Dose-Dependent Effect
Cc1ncc([N+](=O)[O-])n1CCOC(=O)NC(Nc1nc2ccc(F)cc2s1)C(F)(F)Cl (stereo unspecified)	73.7	80.7	–
COC(=O)c1ccc(-c2csc(NC(NC(=O)OCCn3c([N+](=O)[O-])cnc3C)C(F)(F)Cl)n2)cc1 (stereo unspecified)	18.7	34.5	–
Cc1ncc([N+](=O)[O-])n1CCOC(=O)NC(Nc1nc(-c2ccc(S(C)(=O)=O)cc2)cs1)C(F)(F)Cl (stereo unspecified)	103	> 300	–
Cc1ncc([N+](=O)[O-])n1CCOC(=O)NC(Nc1ncccn1)C(Cl)(Cl)Cl (stereo unspecified)	53.5	91.4	Activity (MDA-MB-468 [13]): Active
Cc1sc(NC(NC(=O)OCCn2c([N+](=O)[O-])cnc2C)C(F)(F)Cl)nc1-c1ccc(Cl)cc1 (stereo unspecified)	10.1	12.6	inhibition (Sus scrofa [14]): inactive
Cc1sc(NC(NC(=O)OCCn2c([N+](=O)[O-])cnc2C)C(F)(F)Cl)nc1-c1ccc(OC(F)(F)F)cc1 (stereo unspecified)	11.4	12	Activity (MDA-MB-468 [3]): Active; Activity (MDA-MB-468 [6]): Active; Activity (MDA-MB-468 [7]): Dose-Dependent Effect; Activity (MDA-MB-468 [8]): Dose-Dependent Effect; Activity (MDA-MB-468 [9]): Active; inhibition (Sus scrofa [14]): inactive; Activity (MDA-MB-468 [10]): Active; Activity (MDA-MB-468 [11]): Active; Activity (MDA-MB-468 [12]): Dose-Dependent Effect
Cc1ncc([N+](=O)[O-])n1CCOC(=O)NC(Nc1nc2ccc(S(C)(=O)=O)cc2s1)C(F)(F)Cl (stereo unspecified)	> 300	230	–
COc1ccc(-c2csc(NC(NC(=O)OCCn3c([N+](=O)[O-])cnc3C)C(F)(F)Cl)n2)cc1O (stereo unspecified)	82.5	224	–
COC(=O)c1sc(NC(NC(=O)OCCn2c([N+](=O)[O-])cnc2C)C(F)(F)Cl)nc1-c1ccccc1 (stereo unspecified)	23.5	42.1	–
Cc1ncc([N+](=O)[O-])n1CCOC(=O)NC(Nc1nc2ccccc2[nH]1)C(F)(F)Cl (stereo unspecified)	–	–	viability at 300 µM (MDA-MB-231 [15]): 70%; viability at 300 µM (MDA-MB-468 [16]): 47%
COc1ccc(-c2csc(NC(NC(=O)OCCn3c([N+](=O)[O-])cnc3C)C(F)(Cl)Cl)n2)cc1 (stereo unspecified)	39.3	63.5	–
COc1ccc(-c2csc(NC(NC(=O)OCCN3CCOCC3)C(F)(F)Cl)n2)cc1 (stereo unspecified)	47.5	52.6	–
Cc1ncc([N+](=O)[O-])n1CCOC(=O)NC(Nc1ncc(C#N)cn1)C(F)(F)Cl (stereo unspecified)	–	–	Activity (MDA-MB-468 [16]): inactive
CC(=O)Nc1ccc(-c2csc(NC(NC(=O)OCCn3c([N+](=O)[O-])cnc3C)C(F)(F)Cl)n2)cc1 (stereo unspecified)	66.5	75.7	–
CC(=O)O[C@H]1C(=O)[C@@]2(C)[C@H]([C@H](OC(=O)c3ccccc3)[C@]3(O)C[C@H](OC(=O)[C@H](O)[C@@H](NC(=O)c4ccccc4)c4ccccc4)C(C)=C1C3(C)C)[C@]1(OC(C)=O)CO[C@@H]1C[C@@H]2O	–	–	inhibition (Sus scrofa [17]): Active
Cc1sc(NC(NC(=O)OCCN2CCOCC2)C(F)(F)Cl)nc1-c1ccc(OC(F)(F)F)cc1 (stereo unspecified)	32.6	14.2	–
Cc1ncc([N+](=O)[O-])n1CCOC(=O)NC(Nc1nc(-c2ccc(C#N)c(F)c2)cs1)C(F)(F)Cl (stereo unspecified)	14.4	24.1	inhibition (Sus scrofa [14]): inactive
Cc1ncc([N+](=O)[O-])n1CCOC(=O)NC(Nc1c(Cl)nc(N)nc1Cl)C(F)(F)Cl (stereo unspecified)	–	–	Activity (MDA-MB-231 [15]): inactive; viability at 300 µM (MDA-MB-468 [16]): 52%
Cc1ncc([N+](=O)[O-])n1CCOC(=O)NC(Nc1nc2ccc(Cl)cc2s1)C(F)(F)Cl (stereo unspecified)	42.2	44.5	–
Cc1ncc([N+](=O)[O-])n1CCOC(=O)NC(Nc1nc(-c2ccc(OC(F)(F)F)cc2)cs1)C(F)(F)Cl (stereo unspecified)	23.3	12	–
Cc1ncc([N+](=O)[O-])n1CCOC(=O)NC(N1CCOCC1)C(F)(F)Cl (stereo unspecified)	–	–	Activity (MDA-MB-231 [15]): inactive; Activity (MDA-MB-468 [16]): inactive
Cc1ncc([N+](=O)[O-])n1CCOC(=O)NC(Nc1nc2ccccc2s1)C(F)(F)Cl (stereo unspecified)	–	–	viability at 300 µM (MDA-MB-231 [15]): 66%; viability at 300 µM (MDA-MB-468 [16]): 21%
Cc1ncc([N+](=O)[O-])n1CCOC(=O)NC(Nc1ncccn1)C(F)(F)Cl (stereo unspecified)	–	–	viability at 300 µM (MDA-MB-231 [15]): 52%; viability at 300 µM (MDA-MB-468 [16]): 40%
Cc1ncc([N+](=O)[O-])n1CCOC(=O)NC(Nc1nc2ccc(OC(F)(F)F)cc2s1)C(F)(F)Cl (stereo unspecified)	11.2	21.2	inhibition (Sus scrofa [14]): inactive
COc1ccc(-c2csc(NC(NC(=O)OCCn3c([N+](=O)[O-])cnc3C)C(F)(F)Cl)n2)cc1 (stereo unspecified)	49.2	63.1	–
